According to ChEMBL document CHEMBL4630905 (2021):
Activity calls are given as the source filed them. The calls are words filed in the database; no cut-off is given here.

Assays:
[1] = target: Histamine H4 receptor (Homo sapiens) (UniProt Q9H3N8); settings: Compound concentration 10.0 uM
[2] = target: 5-hydroxytryptamine receptor 1D (Homo sapiens) (UniProt P28221); settings: Compound concentration 10.0 uM
[3] = target: 5-hydroxytryptamine receptor 2A (Homo sapiens) (UniProt P28223); settings: Compound concentration 10.0 uM
[4] = target: Nucleosome-remodeling factor subunit BPTF (Homo sapiens, UniProt Q12830); experiment: FALZ DiscoverX BROMOscan
[5] = target: Chromatin remodeling regulator CECR2 (Homo sapiens, UniProt Q9BXF3); experiment: CECR2 DiscoverX BROMOscan
[6] = target: Bromodomain-containing protein 9 (Homo sapiens, UniProt Q9H8M2); experiment: BRD9 DiscoverX BROMOscan
[7] = target: Bromodomain adjacent to zinc finger domain protein 2B (Homo sapiens, UniProt Q9UIF8); experiment: BAZ2B DiscoverX BROMOscan
[8] = target: Beta-2 adrenergic receptor (Homo sapiens) (UniProt P07550); settings: Compound concentration 10.0 uM
THP-1 = experiment: Proliferation assay (THP-1 cells); format: functional, cell-based; settings: Homo sapiens
HL-60 = experiment: Proliferation assay (HL60 cells); format: functional, cell-based; settings: Homo sapiens
[9] = target: T1, Bromodomain-containing protein 3 (Homo sapiens, UniProt Q15059); experiment: BET mutant TR-FRETassay (BRD3 BD1)
[10] = target: E3 ubiquitin-protein ligase TRIM33 (Homo sapiens, UniProt Q9UPN9); experiment: TRIM33 (TIF1gamma) (PHD & BD) DiscoverX BROMOscan
[11] = target: Alpha-1A adrenergic receptor (Homo sapiens) (UniProt P35348); settings: Compound concentration 10.0 uM
[12] = target: T2, Bromodomain testis-specific protein (Homo sapiens, UniProt Q58F21); experiment: BET mutant TR-FRET assay (BRDT BD1)
[13] = target: Histone acetyltransferase KAT2B (Homo sapiens, UniProt Q92831); experiment: PCAF DiscoverX BROMOscan
[14] = target: Alpha-1D adrenergic receptor (Homo sapiens) (UniProt P25100); settings: Compound concentration 10.0 uM
[15] = target: 5-hydroxytryptamine receptor 5A (Homo sapiens) (UniProt P47898); settings: Compound concentration 10.0 uM
[16] = target: 5-hydroxytryptamine receptor 2C (Homo sapiens) (UniProt P28335); settings: Compound concentration 10.0 uM
[17] = target: Bromodomain and WD repeat-containing protein 1 (Homo sapiens, UniProt Q9NSI6); experiment: WDR9 (BD2) DiscoverX BROMOscan
[18] = target: SWI/SNF-related matrix-associated actin-dependent regulator of chromatin subfamily A member 4 (Homo sapiens, UniProt P51532); experiment: SMARCA4 DiscoverX BROMOscan
[19] = target: Histone acetyltransferase p300 (Homo sapiens, UniProt Q09472); experiment: EP300 DiscoverX BROMOscan
[20] = target: D(1B) dopamine receptor (Homo sapiens) (UniProt P21918); settings: Compound concentration 10.0 uM
Rattus norvegicus = species: Rattus norvegicus; settings: Compound concentration 10.0 uM
[21] = target: Bromodomain-containing protein 1 (Homo sapiens, UniProt O95696); experiment: BRD1 DiscoverX BROMOscan
[22] = target: T3, GABA-A receptor; anion channel (Rattus norvegicus) (UniProt O09028+P15431+P18506+P18508+P19969+P20236+P23574+P23576+P28471+P28473+P30191+P62813+P63079+P63138+Q91ZM7+Q9ES14); settings: Compound concentration 10.0 uM
[23] = target: D(1A) dopamine receptor (Homo sapiens) (UniProt P21728); settings: Compound concentration 10.0 uM
Peregrin = Peregrin (Homo sapiens, UniProt P55201); experiment: BRPF1 DiscoverX BROMOscan
Tumor necrosis factor = Tumor necrosis factor (Homo sapiens, UniProt P01375); experiment: In vitro inhibition of TNFalpha in Lipopolysaccharide-stimulated human whole blood; format: tissue-based
[24] = target: Beta-1 adrenergic receptor (Homo sapiens) (UniProt P08588); settings: Compound concentration 10.0 uM
[25] = target: Bromodomain-containing protein 7 (Homo sapiens, UniProt Q9NPI1); experiment: BRD7 DiscoverX BROMOscan
[26] = target: T4, Bromodomain-containing protein 8 (Homo sapiens, UniProt Q9H0E9); experiment: BRD8 (BD2) DiscoverX BROMOscan
MV4-11 = experiment: Proliferation assay (MV-4−11 cells); format: functional, cell-based; settings: Homo sapiens
[27] = target: SWI/SNF-related matrix-associated actin-dependent regulator of chromatin subfamily A member 2 (Homo sapiens, UniProt P51531); experiment: SMARCA2 DiscoverX BROMOscan
[28] = target: 5-hydroxytryptamine receptor 1A (Homo sapiens) (UniProt P08908); settings: Compound concentration 10.0 uM
[29] = target: T2, Bromodomain testis-specific protein; experiment: BRDT (1,2) DiscoverX BROMOscan
[30] = target: 5-hydroxytryptamine receptor 3A (Homo sapiens) (UniProt P46098); settings: Compound concentration 10.0 uM
[31] = target: Histamine H1 receptor (Homo sapiens) (UniProt P35367); settings: Compound concentration 10.0 uM
[32] = target: Sodium-dependent serotonin transporter (Homo sapiens) (UniProt P31645); settings: Compound concentration 10.0 uM
[33] = target: Histamine H2 receptor (Homo sapiens) (UniProt P25021); settings: Compound concentration 10.0 uM
CREB-binding protein = CREB-binding protein (Homo sapiens, UniProt Q92793); experiment: CREBBP DiscoverX BROMOscan
[34] = target: T3, GABA-A receptor; anion channel (Rattus norvegicus); settings: Compound concentration 10.0 uM; remark: listed apart in the source
[35] = target: Alpha-2B adrenergic receptor (Homo sapiens) (UniProt P18089); settings: Compound concentration 10.0 uM
[36] = target: Histone acetyltransferase KAT2A (Homo sapiens, UniProt Q92830); experiment: GCN5L2 DiscoverX BROMOscan
[37] = target: Muscarinic acetylcholine receptor M4 (Homo sapiens) (UniProt P08173); settings: Compound concentration 10.0 uM
Protein polybromo-1 = Protein polybromo-1 (Homo sapiens, UniProt Q86U86); experiment: PBRM1 (BD2) DiscoverX BROMOscan
[38] = target: Muscarinic acetylcholine receptor M5 (Homo sapiens) (UniProt P08912); settings: Compound concentration 10.0 uM
[39] = target: Beta-3 adrenergic receptor (Homo sapiens) (UniProt P13945); settings: Compound concentration 10.0 uM
[40] = target: 5-hydroxytryptamine receptor 1B (Homo sapiens) (UniProt P28222); settings: Compound concentration 10.0 uM
[41] = target: Sodium-dependent noradrenaline transporter (Homo sapiens) (UniProt P23975); settings: Compound concentration 10.0 uM
[42] = target: T1, Bromodomain-containing protein 3; experiment: BET mutant TR-FRET assay (BRD3 BD2)
[43] = target: Alpha-2C adrenergic receptor (Homo sapiens) (UniProt P18825); settings: Compound concentration 10.0 uM
[44] = target: D(3) dopamine receptor (Homo sapiens) (UniProt P35462); settings: Compound concentration 10.0 uM
[45] = target: D(4) dopamine receptor (Homo sapiens) (UniProt P21917); settings: Compound concentration 10.0 uM
[46] = target: Muscarinic acetylcholine receptor M1 (Homo sapiens) (UniProt P11229); settings: Compound concentration 10.0 uM
D(4) dopamine receptor = D(4) dopamine receptor (Homo sapiens, UniProt P21917); experiment: GPCRScan assay: inhibition of D4; parameters: radioligand conc. used [nm] 0.6 – 1.7, parental cells Stable HEK
[47] = target: Alpha-1B adrenergic receptor (Homo sapiens) (UniProt P35368); settings: Compound concentration 10.0 uM
[48] = target: Sodium-dependent dopamine transporter (Homo sapiens) (UniProt Q01959); settings: Compound concentration 10.0 uM
Interleukin-6 = Interleukin-6 (Homo sapiens, UniProt P05231); experiment: In vitro inhibition of IL-6 in Lipopolysaccharide-stimulated human whole blood; format: tissue-based
[49] = target: Histamine H3 receptor (Homo sapiens) (UniProt Q9Y5N1); settings: Compound concentration 10.0 uM
[50] = target: Alpha-2A adrenergic receptor (Homo sapiens) (UniProt P08913); settings: Compound concentration 10.0 uM
[51] = target: Bromodomain and PHD finger-containing protein 3 (Homo sapiens, UniProt Q9ULD4); experiment: BRPF3 DiscoverX BROMOscan
[52] = target: D(2) dopamine receptor (Homo sapiens) (UniProt P14416); settings: Compound concentration 10.0 uM
C-C motif chemokine 2 = C-C motif chemokine 2 (Homo sapiens, UniProt P13500); experiment: In vitro inhibition of MCP-1 in Lipopolysaccharide-stimulated human whole blood; format: tissue-based
[53] = target: T5, Bromodomain-containing protein 2 (Homo sapiens, UniProt P25440); experiment: BET mutant TR-FRET assay (BRD2 BD1)
[54] = target: T4, Bromodomain-containing protein 8; experiment: BRD8 (BD1) DiscoverX BROMOscan
[55] = target: T5, Bromodomain-containing protein 2; experiment: BET mutant TR-FRET assay (BRD2 BD2)
[56] = target: Sigma intracellular receptor 2 (Homo sapiens) (UniProt Q5BJF2); settings: Compound concentration 10.0 uM
[57] = target: Transcription intermediary factor 1-alpha (Homo sapiens, UniProt O15164); experiment: TRIM24 (TIF1alpha) (PHD & BD) DiscoverX BROMOscan
[58] = target: T2, Bromodomain testis-specific protein; experiment: BET mutant TR-FRET assay (BRDT BD2)
[59] = target: Muscarinic acetylcholine receptor M2 (Homo sapiens) (UniProt P08172); settings: Compound concentration 10.0 uM
[60] = target: GABA-A receptor; anion channel; experiment: GPCRScan assay: inhibition of GABAA/BZP; format: protein-complex assay, Rattus norvegicus; parameters: radioligand conc. used [nm] 0.6 – 4.0, parental cells brain tissue
[61] = target: 5-hydroxytryptamine receptor 1E (Homo sapiens) (UniProt P28566); settings: Compound concentration 10.0 uM
[62] = target: Muscarinic acetylcholine receptor M3 (Homo sapiens) (UniProt P20309); settings: Compound concentration 10.0 uM

T1 sequence (Q15059 2-726 limits assumed, change not shown): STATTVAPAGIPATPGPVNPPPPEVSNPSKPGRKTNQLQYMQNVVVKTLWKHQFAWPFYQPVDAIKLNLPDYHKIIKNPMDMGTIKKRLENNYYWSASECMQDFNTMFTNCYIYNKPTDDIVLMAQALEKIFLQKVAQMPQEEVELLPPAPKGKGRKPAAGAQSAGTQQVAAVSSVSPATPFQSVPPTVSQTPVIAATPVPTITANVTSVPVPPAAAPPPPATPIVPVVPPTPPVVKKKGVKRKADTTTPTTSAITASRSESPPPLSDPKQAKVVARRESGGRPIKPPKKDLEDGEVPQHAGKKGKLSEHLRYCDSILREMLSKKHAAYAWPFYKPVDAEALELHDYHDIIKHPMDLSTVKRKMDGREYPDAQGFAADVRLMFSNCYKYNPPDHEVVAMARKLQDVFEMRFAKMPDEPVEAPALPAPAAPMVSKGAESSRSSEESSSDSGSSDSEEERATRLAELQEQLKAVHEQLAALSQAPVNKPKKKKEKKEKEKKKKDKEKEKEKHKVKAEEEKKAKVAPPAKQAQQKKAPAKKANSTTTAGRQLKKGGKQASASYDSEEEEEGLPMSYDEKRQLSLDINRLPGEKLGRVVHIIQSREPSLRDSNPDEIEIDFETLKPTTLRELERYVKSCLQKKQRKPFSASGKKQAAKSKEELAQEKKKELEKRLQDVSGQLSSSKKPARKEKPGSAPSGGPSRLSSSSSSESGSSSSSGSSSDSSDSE
T5 sequence (P25440 whole entry, looked up, change not shown): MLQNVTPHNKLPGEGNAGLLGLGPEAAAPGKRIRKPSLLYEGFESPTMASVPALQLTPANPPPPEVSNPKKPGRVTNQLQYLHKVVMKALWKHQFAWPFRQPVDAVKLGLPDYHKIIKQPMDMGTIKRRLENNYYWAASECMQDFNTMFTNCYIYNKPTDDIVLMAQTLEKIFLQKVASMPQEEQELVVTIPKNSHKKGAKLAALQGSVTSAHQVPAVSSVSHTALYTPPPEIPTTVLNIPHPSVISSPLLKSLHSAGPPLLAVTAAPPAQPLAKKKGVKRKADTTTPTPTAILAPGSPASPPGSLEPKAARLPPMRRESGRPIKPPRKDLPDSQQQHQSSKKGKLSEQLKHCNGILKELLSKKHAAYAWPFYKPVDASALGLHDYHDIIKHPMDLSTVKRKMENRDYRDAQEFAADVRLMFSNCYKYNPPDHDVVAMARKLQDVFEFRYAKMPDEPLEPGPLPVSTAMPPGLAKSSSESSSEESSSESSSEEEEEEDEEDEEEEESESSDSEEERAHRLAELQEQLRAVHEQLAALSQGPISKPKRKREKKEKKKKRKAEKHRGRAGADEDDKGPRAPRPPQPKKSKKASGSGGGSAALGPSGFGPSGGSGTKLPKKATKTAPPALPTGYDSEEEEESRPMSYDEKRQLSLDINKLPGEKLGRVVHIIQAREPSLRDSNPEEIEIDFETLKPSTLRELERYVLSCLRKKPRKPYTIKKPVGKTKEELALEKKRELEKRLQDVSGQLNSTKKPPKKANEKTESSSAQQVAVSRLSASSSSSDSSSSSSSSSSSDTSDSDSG
Chain of 5-hydroxytryptamine receptor 3A (Homo sapiens) (P46098 whole entry): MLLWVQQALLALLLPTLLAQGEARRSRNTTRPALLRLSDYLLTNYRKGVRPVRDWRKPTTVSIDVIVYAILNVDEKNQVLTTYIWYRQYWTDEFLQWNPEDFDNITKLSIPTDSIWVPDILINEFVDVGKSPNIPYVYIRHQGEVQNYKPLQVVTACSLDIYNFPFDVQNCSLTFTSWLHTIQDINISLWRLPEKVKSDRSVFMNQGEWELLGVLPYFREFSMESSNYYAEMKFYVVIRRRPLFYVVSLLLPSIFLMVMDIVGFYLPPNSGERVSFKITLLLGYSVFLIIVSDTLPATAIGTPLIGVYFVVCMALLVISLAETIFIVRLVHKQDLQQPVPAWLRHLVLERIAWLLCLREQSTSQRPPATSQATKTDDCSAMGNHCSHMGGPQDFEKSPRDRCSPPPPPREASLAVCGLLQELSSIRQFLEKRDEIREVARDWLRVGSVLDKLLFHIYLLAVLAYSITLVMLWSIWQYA
Chain of 5-hydroxytryptamine receptor 2A (Homo sapiens) (P28223 whole entry): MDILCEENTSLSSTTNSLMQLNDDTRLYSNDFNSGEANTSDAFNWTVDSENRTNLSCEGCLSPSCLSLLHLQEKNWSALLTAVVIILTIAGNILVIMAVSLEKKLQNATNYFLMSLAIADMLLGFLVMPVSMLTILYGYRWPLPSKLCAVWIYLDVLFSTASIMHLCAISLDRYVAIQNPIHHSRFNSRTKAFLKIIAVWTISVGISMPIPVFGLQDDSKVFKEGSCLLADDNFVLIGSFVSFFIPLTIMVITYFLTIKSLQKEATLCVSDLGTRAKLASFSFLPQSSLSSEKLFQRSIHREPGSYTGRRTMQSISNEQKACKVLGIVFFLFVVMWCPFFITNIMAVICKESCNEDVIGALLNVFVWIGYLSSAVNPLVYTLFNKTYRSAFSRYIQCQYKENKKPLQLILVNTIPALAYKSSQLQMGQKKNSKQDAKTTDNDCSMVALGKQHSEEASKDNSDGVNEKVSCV
Chain of Alpha-2B adrenergic receptor (Homo sapiens) (P18089 whole entry): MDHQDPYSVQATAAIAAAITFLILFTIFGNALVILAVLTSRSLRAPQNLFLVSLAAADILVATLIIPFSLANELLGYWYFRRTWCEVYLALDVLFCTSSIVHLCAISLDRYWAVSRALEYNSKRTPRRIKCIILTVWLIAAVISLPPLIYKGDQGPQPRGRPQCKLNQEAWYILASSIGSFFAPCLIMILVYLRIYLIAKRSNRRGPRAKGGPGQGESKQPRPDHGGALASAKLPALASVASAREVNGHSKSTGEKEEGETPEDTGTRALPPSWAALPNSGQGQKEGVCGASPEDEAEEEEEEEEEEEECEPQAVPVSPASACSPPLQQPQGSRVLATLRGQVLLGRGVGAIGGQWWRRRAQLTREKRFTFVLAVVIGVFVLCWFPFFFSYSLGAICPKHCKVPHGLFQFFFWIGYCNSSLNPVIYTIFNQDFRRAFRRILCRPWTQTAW
Chain of Sodium-dependent serotonin transporter (Homo sapiens) (P31645 whole entry, looked up): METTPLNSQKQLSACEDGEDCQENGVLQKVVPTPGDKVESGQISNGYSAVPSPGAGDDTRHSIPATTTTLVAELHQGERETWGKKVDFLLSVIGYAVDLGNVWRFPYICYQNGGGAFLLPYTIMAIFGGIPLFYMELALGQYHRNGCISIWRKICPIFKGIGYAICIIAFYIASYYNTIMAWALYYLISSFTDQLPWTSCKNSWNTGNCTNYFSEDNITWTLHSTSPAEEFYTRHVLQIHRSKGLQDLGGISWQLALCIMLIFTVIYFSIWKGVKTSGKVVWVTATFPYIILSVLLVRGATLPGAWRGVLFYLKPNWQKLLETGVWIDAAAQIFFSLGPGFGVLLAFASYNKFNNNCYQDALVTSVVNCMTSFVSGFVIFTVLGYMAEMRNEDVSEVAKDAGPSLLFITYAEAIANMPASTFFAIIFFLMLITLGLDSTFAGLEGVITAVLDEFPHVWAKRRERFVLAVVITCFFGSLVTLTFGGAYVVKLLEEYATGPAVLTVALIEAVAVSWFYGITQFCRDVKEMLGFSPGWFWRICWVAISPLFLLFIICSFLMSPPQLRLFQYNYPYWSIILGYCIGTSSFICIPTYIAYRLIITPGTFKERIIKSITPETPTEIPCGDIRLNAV
Chain of 5-hydroxytryptamine receptor 1B (Homo sapiens) (P28222 whole entry): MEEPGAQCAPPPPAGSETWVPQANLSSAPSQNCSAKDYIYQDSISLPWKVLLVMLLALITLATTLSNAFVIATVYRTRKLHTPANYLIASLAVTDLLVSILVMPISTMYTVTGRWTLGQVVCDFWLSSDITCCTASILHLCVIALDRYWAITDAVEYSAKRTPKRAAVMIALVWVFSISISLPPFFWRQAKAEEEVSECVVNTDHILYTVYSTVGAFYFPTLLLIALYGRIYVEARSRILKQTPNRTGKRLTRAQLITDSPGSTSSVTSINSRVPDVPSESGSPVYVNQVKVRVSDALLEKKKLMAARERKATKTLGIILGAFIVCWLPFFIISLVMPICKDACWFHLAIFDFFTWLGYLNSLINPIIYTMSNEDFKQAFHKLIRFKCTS
Chain of Alpha-2C adrenergic receptor (Homo sapiens) (P18825 whole entry): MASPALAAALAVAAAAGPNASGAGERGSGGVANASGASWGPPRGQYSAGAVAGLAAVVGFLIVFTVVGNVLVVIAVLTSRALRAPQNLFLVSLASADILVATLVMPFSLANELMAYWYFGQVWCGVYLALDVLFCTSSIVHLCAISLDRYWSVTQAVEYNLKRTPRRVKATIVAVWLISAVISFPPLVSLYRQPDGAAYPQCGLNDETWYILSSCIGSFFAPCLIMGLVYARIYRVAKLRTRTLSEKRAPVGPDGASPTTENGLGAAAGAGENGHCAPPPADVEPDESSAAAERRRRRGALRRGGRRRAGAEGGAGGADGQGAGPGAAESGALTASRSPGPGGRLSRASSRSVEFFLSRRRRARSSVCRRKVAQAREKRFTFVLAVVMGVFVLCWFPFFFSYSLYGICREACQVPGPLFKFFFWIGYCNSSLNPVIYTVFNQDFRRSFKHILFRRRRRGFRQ
Chain of Muscarinic acetylcholine receptor M1 (Homo sapiens) (P11229 whole entry): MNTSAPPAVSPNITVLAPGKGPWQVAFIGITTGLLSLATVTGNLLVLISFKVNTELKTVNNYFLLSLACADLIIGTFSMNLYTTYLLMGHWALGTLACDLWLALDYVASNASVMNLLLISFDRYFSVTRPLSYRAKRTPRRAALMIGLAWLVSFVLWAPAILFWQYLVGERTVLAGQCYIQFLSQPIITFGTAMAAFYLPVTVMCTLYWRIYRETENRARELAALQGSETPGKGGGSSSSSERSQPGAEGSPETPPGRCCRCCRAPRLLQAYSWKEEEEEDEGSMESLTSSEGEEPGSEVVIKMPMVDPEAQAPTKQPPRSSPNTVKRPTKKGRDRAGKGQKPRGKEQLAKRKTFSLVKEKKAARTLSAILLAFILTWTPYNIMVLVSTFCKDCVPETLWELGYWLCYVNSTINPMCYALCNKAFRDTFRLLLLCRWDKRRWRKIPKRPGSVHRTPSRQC
Chain of C-C motif chemokine 2 (P13500 whole entry): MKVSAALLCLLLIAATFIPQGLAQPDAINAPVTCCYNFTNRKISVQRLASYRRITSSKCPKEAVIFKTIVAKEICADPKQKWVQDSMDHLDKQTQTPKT

## Cc1cc2c(-c3ccco3)cnc(N[C@@H]3CCN(C)C[C@H]3C(=O)NC3CCCCC3)c2[nH]c1=O [GSK789]
[1]
  inhibition: 15.9%
[2]
  inhibition: -6.42%
[3]
  inhibition: -5.01%
[4]
  Kd: 31.6 µM
[5]
  Kd: 31.6 µM
[6]
  Kd: 31.6 µM
[7]
  Kd: 31.6 µM
[8]
  inhibition: 19.8%
THP-1
  IC50: 258 nM (active)
HL-60
  IC50: 390 nM (active)
[9]
  pIC50: 6.8
[10]
  Kd: 31.6 µM
[11]
  inhibition: 25.2%
[12]
  pIC50: 6.2
[13]
  Kd: 31.6 µM
[14]
  inhibition: 36.6%
[15]
  inhibition: 24.1%
[16]
  inhibition: 14%
[17]
  Kd: 31.6 µM
[18]
  Kd: 31.6 µM
[19]
  Kd: 25.1 µM
[20]
  inhibition: 33.2%
Rattus norvegicus
  inhibition: 3.9%
[21]
  Kd: 31.6 µM
[22]
  inhibition: 14.8%
[23]
  inhibition: 27.3%
Peregrin
  Kd: 31.6 µM
Tumor necrosis factor
  IC50: 870 nM (active)
[24]
  inhibition: 1.68%
[25]
  Kd: 25.1 µM
[26]
  Kd: 31.6 µM
MV4-11
  IC50: 125 nM (active)
[27]
  Kd: 31.6 µM
[28]
  inhibition: 17.3%
[29]
  Kd: 100 nM
[30]
  inhibition: 31.8%
[31]
  inhibition: -0.72%
[32]
  inhibition: 17.7%
[33]
  inhibition: -1.12%
CREB-binding protein
  Kd: 31.6 µM
[34]
  inhibition: 24.7%
[35]
  inhibition: -0.37%
[36]
  Kd: 31.6 µM
[37]
  inhibition: 17.1%
Protein polybromo-1
  Kd: 31.6 µM
[38]
  inhibition: 16.3%
[39]
  inhibition: 13.8%
[40]
  inhibition: 3.37%
[41]
  inhibition: 30.5%
[42]
  pIC50: 4.7
[43]
  inhibition: 8.58%
[44]
  inhibition: 9.01%
[45]
  inhibition: 97.9%
[46]
  inhibition: -9.42%
D(4) dopamine receptor; read-out: Ki
  Ki: 1010 nM
D(4) dopamine receptor; read-out: pKi (converted)
  Ki: 1010 nM
[47]
  inhibition: 11.8%
[48]
  inhibition: 28.5%
Interleukin-6
  IC50: 3.55 µM (active)
[49]
  inhibition: -9.93%
[50]
  inhibition: -3.97%
[51]
  Kd: 31.6 µM
[52]
  inhibition: -4.38%
C-C motif chemokine 2
  IC50: 670 nM (active)
[53]
  pIC50: 7
[54]
  Kd: 31.6 µM
[55]
  pIC50: 4.7
[56]
  inhibition: 9.26%
[57]
  Kd: 31.6 µM
[58]
  pIC50: 4.9
[59]
  inhibition: 0.27%

## Cc1cc2c(-c3ccco3)cnc(N[C@H]3CCN(C)C[C@@H]3C(=O)NC3CCCCC3)c2[nH]c1=O [GSK791]
[2]
  inhibition: 33.1%
[3]
  inhibition: 2.71%
[8]
  inhibition: 4.04%
[9]
  pIC50: 5.4
[11]
  inhibition: 10.1%
[12]
  pIC50: 5.2
[14]
  inhibition: 7.87%
[15]
  inhibition: 10.1%
[16]
  inhibition: 3.86%
[60]
  Ki: 2540 nM
[20]
  inhibition: 35.4%
Rattus norvegicus
  inhibition: -8.18%
[61]
  inhibition: 9.79%
[22]
  inhibition: 14.9%
[23]
  inhibition: 21.2%
[24]
  inhibition: 2.98%
[62]
  inhibition: 28.9%
[28]
  inhibition: 16.9%
[30]
  inhibition: 1.04%
[31]
  inhibition: 11.7%
[32]
  inhibition: 13.8%
[33]
  inhibition: 21.6%
[34]
  inhibition: 86.3%
[35]
  inhibition: 28.5%
[37]
  inhibition: -3%
[38]
  inhibition: 7.44%
[39]
  inhibition: 35.1%
[40]
  inhibition: 1.93%
[41]
  inhibition: 32.4%
[42]
  pIC50: 4.7
[43]
  inhibition: 10.8%
[44]
  inhibition: 15.5%
[45]
  inhibition: 17.4%
[46]
  inhibition: 12%
[47]
  inhibition: 1.98%
[48]
  inhibition: 8.66%
[49]
  inhibition: -2.09%
[50]
  inhibition: 9.8%
[53]
  pIC50: 5.6
[55]
  pIC50: 4.8
[56]
  inhibition: 44.1%
[58]
  pIC50: 5.1
[59]
  inhibition: 5.25%
